From patent US20060069132A1, “Azolecarboxamide herbicides” (priority 2004, published 2006)

What was measured:
[1] = tested on: johnsongrass; assay: Test C pre-/postemergence herbicide test; assay type: in vivo, Sorghum halepense
Summary of the method: (§1)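 Pre/post spray; non-phytotoxic solvent + surfactant. Post-timing 1–4 leaves, 2–18 cm. Read-out: visual % control vs untreated, day 12–14, greenhouse.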

[2] = tested on: goosegrass; assay: Test C pre-/postemergence herbicide test; assay type: in vivo, Eleusine indica
Summary of the method: as §1

[3] = tested on: bermudagrass; assay: Test C pre-/postemergence herbicide test; assay type: in vivo, Cynodon dactylon
Summary of the method: as §1

[4] = tested on: smallflower umbrella sedge; assay: Test C flooded paddy test; assay type: in vivo, Cyperus difformis
[5] = tested on: cocklebur; assay: Test C pre-/postemergence herbicide test; assay type: in vivo, Xanthium strumarium
Summary of the method: as §1

[6] = tested on: soybean; assay: Test C pre-/postemergence herbicide test; assay type: in vivo, Glycine max
Summary of the method: as §1

[7] = tested on: velvetleaf; assay: Test C pre-/postemergence herbicide test; assay type: in vivo, Abutilon theophrasti
Summary of the method: as §1

[8] = tested on: corn; assay: Test C pre-/postemergence herbicide test; assay type: in vivo, Zea mays
Summary of the method: as §1

[9] = tested on: ducksalad; assay: Test C flooded paddy test; assay type: in vivo, Heteranthera limosa
[10] = tested on: rice; assay: Test C flooded paddy test; assay type: in vivo, Oryza sativa
Summary of the method: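 Injury scored visually against controls on a 0 (no effect) to 100 (complete control) scale, 12 to 14 days after treatment in greenhouse. Flooded paddy plants treated at 2-leaf stage; postemergence plants at 1- to 4-leaf stage, 2 to 18 cm tall.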

[11] = 62 g ai/ha, preemergence, scale 0 to 100
[12] = 250 g ai/ha, scale 0-100, preemergence
[13] = 500 g ai/ha, scale 0 to 100 (0 no effect, 100 complete control), visual, 12 to 14 days, preemergence
[14] = 125 g ai/ha, scale 0 to 100 (0 no effect, 100 complete control)
[15] = 250 g ai/ha, scale of 0 to 100, 0 is no effect, 100 is complete control
[16] = 500 g ai/ha, visual rating after 12 to 14 days, scale 0 to 100 (0 no effect, 100 complete control)

In the case of `CCNC(=O)c1ccc(F)c(NC(=O)C2CN(C(C)(C)C)N=C2CC)c1` (stereo not drawn) [Compound 336, 1-(1,1-dimethylethyl)-3-ethyl-N-[5-[(ethylamino)carbonyl]-2-fluorophenyl]-4,5-dihydro-1H-pyrazole-4-carboxamide], the pest or weed control at 62 g/ha ([1]; Sorghum halepense, pre-emergence, 62 g ai/ha, preemergence, scale 0 to 100, read-out: Plant response rating, Johnsongrass) is reported as 80%, the pest or weed control at 125 g/ha ([1]; Sorghum halepense, pre-emergence, 125 g ai/ha, scale 0 (no effect) to 100 (complete control), visual, 12 to 14 days, read-out: Plant response rating, Johnsongrass) is reported as 95% and the pest or weed control at 250 g/ha ([1]; Sorghum halepense, pre-emergence, 250 g ai/ha, scale 0-100, read-out: Plant response rating, Johnsongrass) is reported as 100%. For the same molecule, the pest or weed control at 500 g/ha ([1]; Sorghum halepense, pre-emergence, 500 g ai/ha, scale 0 to 100 (0 no effect, 100 complete control), visual, 12 to 14 days, read-out: Plant response rating, Johnsongrass) was 100%, the pest or weed control at 62 g/ha ([2]; Eleusine indica, pre-emergence, 312 h, 62 g ai/ha, preemergence, scale 0 to 100, read-out: Plant response rating, Goosegrass) was 95% and the pest or weed control at 125 g/ha ([2]; Eleusine indica, pre-emergence, 312 h, 125 g ai/ha, scale 0 (no effect) to 100 (complete control), visual, 12 to 14 days, read-out: Plant response rating, Goosegrass) was 100%. The pest or weed control at 250 g/ha ([2]; Eleusine indica, pre-emergence, 312 h, 250 g ai/ha, scale 0-100, read-out: Plant response rating, Goosegrass) was 100%, the pest or weed control at 500 g/ha ([2]; Eleusine indica, pre-emergence, 312 h, 500 g ai/ha, scale 0 to 100 (0 no effect, 100 complete control), visual, 12 to 14 days, read-out: Plant response rating, Goosegrass) was 100% and the pest or weed control at 62 g/ha ([3]; Cynodon dactylon, pre-emergence, 312 h, 62 g ai/ha, preemergence, scale 0 to 100, 0 no effect, 100 complete control, read-out: Plant response rating, Bermudagrass) was 95%. It also gave a pest or weed control at 125 g/ha ([3]; Cynodon dactylon, pre-emergence, 312 h, 125 g ai/ha, scale 0 (no effect) to 100 (complete control), visual, 12 to 14 days, read-out: Plant response rating, Bermudagrass) of 100%, a pest or weed control at 250 g/ha ([3]; Cynodon dactylon, pre-emergence, 312 h, 250 g ai/ha, scale 0-100, read-out: Plant response rating, Bermudagrass) of 100% and a pest or weed control at 500 g/ha ([3]; Cynodon dactylon, pre-emergence, 312 h, 500 g ai/ha, scale 0 to 100 (0 no effect, 100 complete control), visual, 12 to 14 days, read-out: Plant response rating, Bermudagrass) of 100%. For the same molecule, the pest or weed control at 62 g/ha ([4]; Cyperus difformis, 62 g ai/ha, scale 0 to 100, read-out: Sedge, Umbrella plant response rating) was 25%, the pest or weed control at 125 g/ha ([4]; Cyperus difformis, 125 g ai/ha, scale 0 to 100 (0 no effect, 100 complete control), read-out: Sedge, Umbrella plant response rating) was 80% and the pest or weed control at 250 g/ha ([4]; Cyperus difformis, 250 g ai/ha, scale of 0 to 100, 0 is no effect, 100 is complete control, read-out: Sedge, Umbrella plant response rating) was 85%. For the same molecule, the pest or weed control at 500 g/ha ([4]; Cyperus difformis, 500 g ai/ha, visual rating after 12 to 14 days, scale 0 to 100 (0 no effect, 100 complete control), read-out: Plant response rating, Sedge, Umbrella) was 90%, the pest or weed control at 62 g/ha ([5]; Xanthium strumarium, pre-emergence, 312 h, 62 g ai/ha, preemergence, scale 0 to 100, read-out: Plant response rating, Cocklebur) was 0% and the pest or weed control at 125 g/ha ([5]; Xanthium strumarium, pre-emergence, 312 h, 125 g ai/ha, scale 0 (no effect) to 100 (complete control), visual, 12 to 14 days, read-out: Plant response rating, Cocklebur) was 5%. For the same molecule, the pest or weed control at 250 g/ha ([5]; Xanthium strumarium, pre-emergence, 312 h, 250 g ai/ha, scale 0-100, read-out: Plant response rating, Cocklebur) was 30%, the pest or weed control at 500 g/ha ([5]; Xanthium strumarium, pre-emergence, 312 h, 500 g ai/ha, scale 0 to 100 (0 no effect, 100 complete control), visual, 12 to 14 days, read-out: Plant response rating, Cocklebur) was 50% and the plant injury at 62 g/ha ([6]; Glycine max, pre-emergence, 62 g ai/ha, preemergence, scale 0 to 100, read-out: Plant response rating, Soybean) was 0%. The plant injury at 250 g/ha ([6]; Glycine max, pre-emergence, 250 g ai/ha, scale 0-100, read-out: Plant response rating, Soybean) was 50%, the plant injury at 500 g/ha ([6]; Glycine max, pre-emergence, 500 g ai/ha, scale 0 to 100 (0 no effect, 100 complete control), visual, 12 to 14 days, read-out: Plant response rating, Soybean) was 100% and the pest or weed control at 62 g/ha ([7]; Abutilon theophrasti, pre-emergence, 62 g ai/ha, preemergence, scale 0 to 100, read-out: Plant response rating, Velvetleaf) was 5%. The pest or weed control at 250 g/ha ([7]; Abutilon theophrasti, pre-emergence, 250 g ai/ha, scale 0-100, read-out: Plant response rating, Velvetleaf) was 100%, the pest or weed control at 500 g/ha ([7]; Abutilon theophrasti, pre-emergence, 500 g ai/ha, scale 0 to 100 (0 no effect, 100 complete control), visual, 12 to 14 days, read-out: Plant response rating, Velvetleaf) was 100% and the Corn plant response rating (crop injury, 0 = no effect, 100 = complete kill) at 62 g/ha ([8]; Zea mays, pre-emergence, 312 h, 62 g ai/ha, preemergence, scale 0 to 100) was 10%. It also gave a Corn plant response rating (crop injury, 0 = no effect, 100 = complete kill) at 125 g/ha ([8]; Zea mays, pre-emergence, 312 h, 125 g ai/ha, scale 0 (no effect) to 100 (complete control), visual, 12 to 14 days) of 35%, a Corn plant response rating (crop injury, 0 = no effect, 100 = complete kill) at 250 g/ha ([8]; Zea mays, pre-emergence, 312 h, 250 g ai/ha, scale 0-100) of 85% and a Corn plant response rating (crop injury, 0 = no effect, 100 = complete kill) at 500 g/ha ([8]; Zea mays, pre-emergence, 312 h, 500 g ai/ha, scale 0 to 100 (0 no effect, 100 complete control), visual, 12 to 14 days) of 85%. The pest or weed control at 62 g/ha ([9]; Heteranthera limosa, 62 g ai/ha, scale 0 to 100, read-out: Ducksalad plant response rating) was 45%, the pest or weed control at 125 g/ha ([9]; Heteranthera limosa, 125 g ai/ha, scale 0 to 100 (0 no effect, 100 complete control), read-out: Ducksalad plant response rating) was 55% and the pest or weed control at 250 g/ha ([9]; Heteranthera limosa, 250 g ai/ha, scale of 0 to 100, 0 is no effect, 100 is complete control, read-out: Ducksalad plant response rating) was 75%. For the same molecule, the pest or weed control at 500 g/ha ([9]; Heteranthera limosa, 500 g ai/ha, visual rating after 12 to 14 days, scale 0 to 100 (0 no effect, 100 complete control), read-out: Plant response rating, Ducksalad) was 90%, the plant injury at 62 g/ha ([10]; Oryza sativa, 62 g ai/ha, scale 0 to 100, read-out: Rice plant response rating) was 10% and the plant injury at 125 g/ha ([10]; Oryza sativa, 125 g ai/ha, scale 0 to 100 (0 no effect, 100 complete control), read-out: Rice plant response rating) was 45%. The plant injury at 250 g/ha ([10]; Oryza sativa, 250 g ai/ha, scale of 0 to 100, 0 is no effect, 100 is complete control, read-out: Rice plant response rating) was 75% and the plant injury at 500 g/ha ([10]; Oryza sativa, 500 g ai/ha, visual rating after 12 to 14 days, scale 0 to 100 (0 no effect, 100 complete control), read-out: Plant response rating, Rice) was 75%.

With `CCC1=NN(C(C)(C)C)CC1C(=O)Nc1cc(C(=O)N2CCCC2)ccc1F` (racemic) [Compound 341] the “Plant response rating, Johnsongrass” value [1, 11] was 15, the “Plant response rating (0 = no effect, 100 = complete control), Johnsongrass” value ([1]; 125 g ai/ha, preemergence) was 85 and the “Plant response rating, Johnsongrass” value [1, 12] was 100. For the same molecule, the “Plant response rating, Johnsongrass” value [1, 13] was 100, the “Plant response rating, Goosegrass” value [2, 11] was 70 and the “Plant response rating (0 = no effect, 100 = complete control), Goosegrass” value ([2]; 125 g ai/ha, preemergence) was 85. For the same molecule, the “Plant response rating, Goosegrass” value [2, 12] was 85, the “Plant response rating, Goosegrass” value [2, 13] was 90 and the “Plant response rating, Bermudagrass” value ([3]; 62 g ai/ha, preemergence, scale 0 to 100, 0 no effect, 100 complete control) was 80. For the same molecule, the “Plant response rating (0 = no effect, 100 = complete control), Bermudagrass” value ([3]; 125 g ai/ha, preemergence) was 80, the “Plant response rating, Bermudagrass” value [3, 12] was 100 and the “Plant response rating, Bermudagrass” value [3, 13] was 100. The “Sedge, Umbrella plant response rating” value ([4]; 62 g ai/ha, scale 0 to 100) was 20, the “Sedge, Umbrella plant response rating” value [4, 14] was 50 and the “Sedge, Umbrella plant response rating” value [4, 15] was 60. The “Plant response rating, Sedge, Umbrella” value [4, 16] was 60, the “Plant response rating, Cocklebur” value [5, 11] was 0 and the “Plant response rating (0 = no effect, 100 = complete control), Cocklebur” value ([5]; 125 g ai/ha, preemergence) was 10. For the same molecule, the “Plant response rating, Cocklebur” value [5, 12] was 50, the “Plant response rating, Cocklebur” value [5, 13] was 100 and the “Plant response rating, Soybean” value [6, 11] was 0. For the same molecule, the “Plant response rating (0 = no effect, 100 = complete control), Soybean” value ([6]; 125 g ai/ha, preemergence) was 20, the “Plant response rating, Soybean” value [6, 12] was 70 and the “Plant response rating, Soybean” value [6, 13] was 100. For the same molecule, the “Plant response rating, Velvetleaf” value [7, 11] was 30, the “Plant response rating (0 = no effect, 100 = complete control), Velvetleaf” value ([7]; 125 g ai/ha, preemergence) was 60 and the “Plant response rating, Velvetleaf” value [7, 12] was 100. The “Plant response rating, Velvetleaf” value [7, 13] was 100, the “Plant response rating, Corn” value [8, 11] was 10 and the “Plant response rating (0 = no effect, 100 = complete control), Corn” value ([8]; 125 g ai/ha, preemergence) was 60. For the same molecule, the “Plant response rating, Corn” value [8, 12] was 85, the “Plant response rating, Corn” value [8, 13] was 90 and the “Ducksalad plant response rating” value ([9]; 62 g ai/ha, scale 0 to 100) was 20. For the same molecule, the “Ducksalad plant response rating” value [9, 14] was 50, the “Ducksalad plant response rating” value [9, 15] was 60 and the “Plant response rating, Ducksalad” value [9, 16] was 60. For the same molecule, the “Rice plant response rating” value ([10]; 62 g ai/ha, scale 0 to 100) was 20, the “Rice plant response rating” value [10, 14] was 50 and the “Rice plant response rating” value [10, 15] was 60. For the same molecule, the “Plant response rating, Rice” value [10, 16] was 70.
